Test results: ChEMBL document CHEMBL1122060, “Synthesis and some pharmacological properties of Z-Tyr(SO3H)-Met-Gly-Trp-Met-Asp(Phe-NH2)-OH, a 32-beta-aspartyl analogue of cholecystokinin (pancreozymin) 27-33” (1982)
*1 amine or outer side, *2 acyl side, *3 side chain or, on linkers, in order; H or OH if unused. Where a SMILES comes first, the peptide text is derived from it. [ ]: non-standard residue; d: D form. βAsp = O=C(O)[C@H](CC(=O)[*:2])N[*:1]

Experiments:
Assay type in all cases: functional
Felis catus [1] = species on record: Felis catus; assay: Pancreatic response measured as optical density of the pancreatic juice secreted 30 minutes following injection of 1 ug and diluted to 25 mL with physiological saline.
Felis catus [2] = species on record: Felis catus; assay: Pancreatic response measured as optical density of the pancreatic juice secreted 30 minutes following injection of 2 ug and diluted to 25 mL with physiological saline.
Felis catus [3] = species on record: Felis catus; assay: Pancreatic response measured as optical density of the pancreatic juice secreted 30 minutes following injection of 0.5 ug and diluted to 25 mL with physiological saline.

CSCC[C@H](NC(=O)[C@H](Cc1c[nH]c2ccccc12)NC(=O)CNC(=O)[C@H](CCSC)NC(=O)[C@@H](N)Cc1ccc(O)cc1)C(=O)N[C@@H](CC(=O)N[C@@H](Cc1ccccc1)C(N)=O)C(=O)O (H-YMGWM[βAsp]F-NH2)
Pancreatic response (Felis catus [1]): 0.97 | Pancreatic response (Felis catus [2]): 1.47 | Pancreatic response (Felis catus [3]): 0.46
